Test results taken from patent US10028966B2 (Avalyn Pharma Inc., priority 2014, dated 2018).

Columns and labels:
[1] = Aerosol tolerability analysis of low concentration dosage forms; parameters: key to Throat Irritation: 1 = none; 5 = strong
Excerpt: Additional observations include maintaining osmolality between about 250 to about 500 mOsmo/kg. The tolerability for formulations with an osmolalty outside this range may be adjusted with modifications in the above formulation parameters and device output and aerosol particle size characteristics.

CYP2C9 = target: T1, CYP2C9 (Homo sapiens, UniProt P11712); conditions: hepatic microsomes; cited from earlier work
T1 construct: In vitro metabolism studies with hepatic microsomes; from tissue; host or cells: hepatic microsomes
T1 sequence (P11712 whole entry): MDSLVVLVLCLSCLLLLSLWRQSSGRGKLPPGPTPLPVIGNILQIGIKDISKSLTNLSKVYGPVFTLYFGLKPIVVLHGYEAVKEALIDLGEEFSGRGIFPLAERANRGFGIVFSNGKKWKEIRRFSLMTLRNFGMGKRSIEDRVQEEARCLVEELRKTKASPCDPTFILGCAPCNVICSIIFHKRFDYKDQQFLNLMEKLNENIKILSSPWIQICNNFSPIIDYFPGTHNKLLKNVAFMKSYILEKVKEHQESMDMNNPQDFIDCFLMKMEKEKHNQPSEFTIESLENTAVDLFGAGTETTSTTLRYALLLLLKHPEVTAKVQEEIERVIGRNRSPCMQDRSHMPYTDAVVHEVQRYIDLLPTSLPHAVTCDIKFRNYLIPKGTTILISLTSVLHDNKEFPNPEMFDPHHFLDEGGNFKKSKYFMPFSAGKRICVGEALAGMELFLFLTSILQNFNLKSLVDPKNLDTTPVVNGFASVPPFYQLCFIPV

Q: Which “Est. Osmolality” value ([1]; citrate 5 mM, NaCl 100 mM, MgCl2 43.3 mM, pH 5.5, pirfenidone 16 mg/mL) does the source give for `Cc1ccc(=O)n(-c2ccccc2)c1` [pirfenidone, 5-methyl-1-phenyl-2-(1H)-pyridone] here?
A: 430 mOsmo/Kg

Q: And the “Throat Irritation” value ([1]; citrate 5 mM, NaCl 100 mM, MgCl2 43.3 mM, pH 5.5, pirfenidone 16 mg/mL, 3.7 micron)?
A: 3

Q: What about the “Est. Osmolality” value ([1]; citrate 5 mM, NaCl 100 mM, MgCl2 43.3 mM, saccharin 0.6 mM, pH 5.5, pirfenidone 16 mg/mL) of the same compound?
A: 430 mOsmo/Kg

Q: And the “Throat Irritation” value ([1]; citrate 5 mM, NaCl 100 mM, MgCl2 43.3 mM, saccharin 0.6 mM, pH 5.5, pirfenidone 16 mg/mL, 3.7 micron)?
A: 2

Q: What about the “Est. Osmolality” value ([1]; citrate 5 mM, NaCl 100 mM, pH 5.5, pirfenidone 4 mg/mL) of the same compound?
A: 270 mOsmo/Kg

Q: And the “Throat Irritation” value ([1]; citrate 5 mM, NaCl 100 mM, pH 5.5, pirfenidone 4 mg/mL, 3.2 micron)?
A: 2

Q: What about the “Est. Osmolality” value ([1]; citrate 5 mM, NaCl 100 mM, pH 5.5, pirfenidone 16 mg/mL (3.2 micron entry)) of the same compound?
A: 400 mOsmo/Kg

Q: What about the “Est. Osmolality” value ([1]; citrate 5 mM, NaCl 100 mM, pH 5.5, pirfenidone 16 mg/mL (first 3.7 micron entry)) of the same compound?
A: 400 mOsmo/Kg

Q: What about the “Est. Osmolality” value ([1]; citrate 5 mM, NaCl 100 mM, pH 5.5, pirfenidone 16 mg/mL (second 3.7 micron entry)) of the same compound?
A: 400 mOsmo/Kg

Q: What about the “Throat Irritation” value ([1]; citrate 5 mM, NaCl 100 mM, pH 5.5, pirfenidone 16 mg/mL, 3.2 micron) of the same compound?
A: 2

Q: And the “Throat Irritation” value ([1]; citrate 5 mM, NaCl 100 mM, pH 5.5, pirfenidone 16 mg/mL, 3.7 micron (first entry))?
A: 3

Q: And the “Throat Irritation” value ([1]; citrate 5 mM, NaCl 100 mM, pH 5.5, pirfenidone 16 mg/mL, 3.7 micron (second entry))?
A: 3

Q: And the “Est. Osmolality” value ([1]; citrate 5 mM, NaCl 100 mM, saccharin 0.3 mM, pH 5.5, pirfenidone 4 mg/mL)?
A: 270 mOsmo/Kg

Q: And the “Throat Irritation” value ([1]; citrate 5 mM, NaCl 100 mM, saccharin 0.3 mM, pH 5.5, pirfenidone 4 mg/mL, 3.7 micron)?
A: 2

Q: What about the “Est. Osmolality” value ([1]; citrate 5 mM, NaCl 100 mM, saccharin 0.7 mM, pH 5.5, pirfenidone 16 mg/mL (3.2 micron entry)) of the same compound?
A: 400 mOsmo/Kg

Q: And the “Est. Osmolality” value ([1]; citrate 5 mM, NaCl 100 mM, saccharin 0.7 mM, pH 5.5, pirfenidone 16 mg/mL (3.7 micron entry))?
A: 400 mOsmo/Kg

Q: And the “Est. Osmolality” value ([1]; citrate 5 mM, NaCl 100 mM, saccharin 0.7 mM, pH 5.5, pirfenidone 16 mg/mL (4.6 micron entry))?
A: 400 mOsmo/Kg

Q: And the “Throat Irritation” value ([1]; citrate 5 mM, NaCl 100 mM, saccharin 0.7 mM, pH 5.5, pirfenidone 16 mg/mL, 3.2 micron)?
A: 3

Q: What about the “Throat Irritation” value ([1]; citrate 5 mM, NaCl 100 mM, saccharin 0.7 mM, pH 5.5, pirfenidone 16 mg/mL, 3.7 micron) of the same compound?
A: 2

Q: What about the “Throat Irritation” value ([1]; citrate 5 mM, NaCl 100 mM, saccharin 0.7 mM, pH 5.5, pirfenidone 16 mg/mL, 4.6 micron (slower output device ~0.5 mL/minute)) of the same compound?
A: 1

Q: What about the “Est. Osmolality” value ([1]; citrate 5 mM, NaCl 100 mM, saccharin 0.9 mM, pH 5.5, pirfenidone 16 mg/mL (3.2 micron entry)) of the same compound?
A: 400 mOsmo/Kg

Q: What about the “Est. Osmolality” value ([1]; citrate 5 mM, NaCl 100 mM, saccharin 0.9 mM, pH 5.5, pirfenidone 16 mg/mL (3.7 micron entry)) of the same compound?
A: 400 mOsmo/Kg

Q: What about the “Throat Irritation” value ([1]; citrate 5 mM, NaCl 100 mM, saccharin 0.9 mM, pH 5.5, pirfenidone 16 mg/mL, 3.2 micron) of the same compound?
A: 1

Q: And the “Throat Irritation” value ([1]; citrate 5 mM, NaCl 100 mM, saccharin 0.9 mM, pH 5.5, pirfenidone 16 mg/mL, 3.7 micron)?
A: 2

Q: And the “Est. Osmolality” value ([1]; citrate 5 mM, NaCl 150 mM, pH 5.5, pirfenidone 4 mg/mL (3.2 micron entry))?
A: 330 mOsmo/Kg

Q: And the “Est. Osmolality” value ([1]; citrate 5 mM, NaCl 150 mM, pH 5.5, pirfenidone 4 mg/mL (3.7 micron entry))?
A: 330 mOsmo/Kg

Q: And the “Throat Irritation” value ([1]; citrate 5 mM, NaCl 150 mM, pH 5.5, pirfenidone 4 mg/mL, 3.2 micron)?
A: 1

Q: What about the “Throat Irritation” value ([1]; citrate 5 mM, NaCl 150 mM, pH 5.5, pirfenidone 4 mg/mL, 3.7 micron) of the same compound?
A: 2

Q: And the “Est. Osmolality” value ([1]; citrate 5 mM, NaCl 150 mM, pH 5.5, pirfenidone 16 mg/mL)?
A: 400 mOsmo/Kg

Q: What about the “Throat Irritation” value ([1]; citrate 5 mM, NaCl 150 mM, pH 5.5, pirfenidone 16 mg/mL, 3.7 micron) of the same compound?
A: 4

Q: What about the “Est. Osmolality” value ([1]; citrate 5 mM, NaCl 150 mM, saccharin 0.2 mM, pH 5.5, pirfenidone 4 mg/mL) of the same compound?
A: 330 mOsmo/Kg

Q: What about the “Throat Irritation” value ([1]; citrate 5 mM, NaCl 150 mM, saccharin 0.2 mM, pH 5.5, pirfenidone 4 mg/mL, 3.7 micron) of the same compound?
A: 2

Q: What about the “Est. Osmolality” value ([1]; citrate 5 mM, NaCl 150 mM, saccharin 0.3 mM, pH 5.5, pirfenidone 4 mg/mL) of the same compound?
A: 330 mOsmo/Kg

Q: And the “Throat Irritation” value ([1]; citrate 5 mM, NaCl 150 mM, saccharin 0.3 mM, pH 5.5, pirfenidone 4 mg/mL, 3.7 micron)?
A: 1

Q: And the “Est. Osmolality” value ([1]; citrate 5 mM, NaCl 150 mM, saccharin 0.5 mM, pH 5.5, pirfenidone 16 mg/mL)?
A: 400 mOsmo/Kg

Q: What about the “Throat Irritation” value ([1]; citrate 5 mM, NaCl 150 mM, saccharin 0.5 mM, pH 5.5, pirfenidone 16 mg/mL, 3.7 micron) of the same compound?
A: 1

Q: What about the “Est. Osmolality” value ([1]; citrate 5 mM, NaCl 150 mM, saccharin 0.9 mM, pH 5.5, pirfenidone 16 mg/mL) of the same compound?
A: 400 mOsmo/Kg

Q: What about the “Throat Irritation” value ([1]; citrate 5 mM, NaCl 150 mM, saccharin 0.9 mM, pH 5.5, pirfenidone 16 mg/mL, 3.7 micron) of the same compound?
A: 1

Q: And the “Est. Osmolality” value ([1]; no buffer, NaCl 150 mM, pH ND, pirfenidone 16 mg/mL)?
A: 375 mOsmo/Kg

Q: And the “Throat Irritation” value ([1]; no buffer, NaCl 150 mM, pH ND, pirfenidone 16 mg/mL, 3.2 micron)?
A: 5

Q: And the “Est. Osmolality” value ([1]; no buffer, NaCl 150 mM, saccharin 0.7 mM, pH ND, pirfenidone 16 mg/mL)?
A: 375 mOsmo/Kg

Q: What about the “Throat Irritation” value ([1]; no buffer, NaCl 150 mM, saccharin 0.7 mM, pH ND, pirfenidone 16 mg/mL, 3.2 micron) of the same compound?
A: 5

Q: What about the “Est. Osmolality” value ([1]; phosphate 5 mM, MgCl2 43.3 mM, pH 7, pirfenidone 16 mg/mL) of the same compound?
A: 210 mOsmo/Kg

Q: What about the “Throat Irritation” value ([1]; phosphate 5 mM, MgCl2 43.3 mM, pH 7, pirfenidone 16 mg/mL, 3.7 micron) of the same compound?
A: 5

Q: And the “Est. Osmolality” value ([1]; phosphate 5 mM, MgCl2 43.3 mM, saccharin 0.5 mM, pH 7, pirfenidone 16 mg/mL)?
A: 210 mOsmo/Kg

Q: And the “Throat Irritation” value ([1]; phosphate 5 mM, MgCl2 43.3 mM, saccharin 0.5 mM, pH 7, pirfenidone 16 mg/mL, 3.7 micron)?
A: 5

Q: What about the “Est. Osmolality” value ([1]; phosphate 5 mM, NaCl 50 mM, MgCl2 43.3 mM, pH 7, pirfenidone 16 mg/mL) of the same compound?
A: 310 mOsmo/Kg

Q: And the “Throat Irritation” value ([1]; phosphate 5 mM, NaCl 50 mM, MgCl2 43.3 mM, pH 7, pirfenidone 16 mg/mL, 3.7 micron)?
A: 4

Q: What about the “Est. Osmolality” value ([1]; phosphate 5 mM, NaCl 50 mM, pH 7, pirfenidone 16 mg/mL) of the same compound?
A: 200 mOsmo/Kg

Q: And the “Throat Irritation” value ([1]; phosphate 5 mM, NaCl 50 mM, pH 7, pirfenidone 16 mg/mL, 3.7 micron)?
A: 5

Q: And the “Est. Osmolality” value ([1]; phosphate 5 mM, NaCl 150 mM, pH 7, pirfenidone 16 mg/mL)?
A: 400 mOsmo/Kg

Q: And the “Throat Irritation” value ([1]; phosphate 5 mM, NaCl 150 mM, pH 7, pirfenidone 16 mg/mL, 3.7 micron)?
A: 3

Q: What about the “contribution to pirfenidone metabolism” value (CYP2C9) of the same compound?
A: less than 13%
